Where two headings read alike, the source gives them in different places.
How the values were obtained:
[1] = test system: H929 multiple myeloma tumor line; assay: In vitro cytotoxicity, MTT assay (Example B, Method A); assay type: cell-based; details: H929 cells, 48 hours exposure, read-out: C50
Procedure: The cytotoxicity studies were carried out on the H929 multiple myeloma tumor line.
The cells are distributed onto microplates and exposed to the test compounds for 48 hours. The cell viability is then quantified by a colorimetric assay, the Microculture Tetrazolium Assay (Carmichael et al, Cancer Res. 1987, 47, 939-942).
The results are expressed in C50 which means concentration corresponding to […] of effect/inhibition.

[2] = molecular target: Cy5-labelled Mcl1 (amino acids 171-321) C286S protein (UniProtKB Q07820) (Homo sapiens (Human), UniProt Q07820, C286S); assay: Inhibition of Mcl-1 by the fluorescence quenching assay (Example A, Method B); assay type: binding
Sequence of Cy5-labelled Mcl1 (amino acids 171-321) C286S protein (Q07820 171-321 C286S): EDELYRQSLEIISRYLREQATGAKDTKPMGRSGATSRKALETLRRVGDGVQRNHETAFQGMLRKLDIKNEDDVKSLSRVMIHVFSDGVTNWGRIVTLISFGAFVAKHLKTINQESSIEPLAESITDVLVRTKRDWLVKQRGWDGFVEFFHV
Outline: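 Cy5-labelled Mcl1 171-321 C286S (1 nM) quenched by TQ5WS-labelled PUMA peptide (10, 20 or 400 nM); displacement raises fluorescence (Ex 620/Em 680 nm). Buffer 10 mM HEPES, 150 mM NaCl, 0.05% Tween 20, pH 7.4, 5% DMSO; 2 h at room temperature, 11-point curves, IC50 converted to Ki (cKi/eKi).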

Row | Compound | Ki [2] [nM] | IC50 [1] [nM] | IC50 ([1]; Homo sapiens, NCI-H929, 48 h) [nM]
1 | C[C@@H]1CCCc2nccc(OCC(CC3=Cc4ccccc4[C@]34CC[C@@](Nc3cccc(Cl)c3)(C(=O)O)CC4)C(F)F)c21 (single isomer, unassigned) [Example 517] | 4.98 | 550 | –
2 | C[C@@H]1CCCc2nccc(OCC(CC3Cc4ccccc4[C@]34CC[C@@](Nc3cccc(Cl)c3)(C(=O)O)CC4)C(F)F)c21 (single isomer, unassigned) [Example 520] | 91.4 | 10400 | –
3 | C[C@@H]1CCCc2nccc(OCC(CC3Cc4ccccc4[C@]34CC[C@@](Nc3cccc(Cl)c3)(C(=O)O)CC4)C(F)F)c21 (single isomer, unassigned) [Example 521] | 32.3 | 986 | –
4 | O=C(O)[C@]1(Nc2cccc(Cl)c2)CC[C@]2(CC1)C(CC(COc1ccnc3ccsc13)Cc1ccccc1)=Cc1ccccc12 (single isomer, unassigned) [Example 559, (1r,4r)-2′-{2-benzyl-3-[(thieno[3,2-b]pyridin-7-yl)oxy]propyl}-4-(3-chloroanilino)spiro[cyclohexane-1,1′-indene]-4-carboxylic acid] | 73 | – | 30000
5 | O=C(O)[C@]1(Nc2cccc(Cl)c2)CC[C@@]2(CC1)c1ccccc1CC2CC(COc1ccnc2ccsc12)Cc1ccccc1 (single isomer, unassigned) [Example 560, (1r,4r)-2′-{2-benzyl-3-[(thieno[3,2-b]pyridin-7-yl)oxy]propyl}-4-(3-chloroanilino)-2′,3′-dihydrospiro[cyclohexane-1,1′-indene]-4-carboxylic acid] | 92 | 12600 | –
6 | O=C(O)[C@]1(Nc2cccc(Cl)c2)CC[C@@]2(CC1)c1ccccc1CC2CC(COc1ccnc2ccsc12)Cc1ccccc1 (single isomer, unassigned) [Example 562, (1r,4r)-2′-{2-benzyl-3-[(thieno[3,2-b]pyridin-7-yl)oxy]propyl}-4-(3-chloroanilino)-2′,3′-dihydrospiro[cyclohexane-1,1′-indene]-4-carboxylic acid] | 80.9 | 17800 | –
7 | CC(CC1Cc2ccccc2[C@]12CC[C@@](Nc1cccc(Cl)c1)(C(=O)O)CC2)C1CCC(=O)CC1 (single isomer, unassigned) [Example 570, (1r,4r)-4-(3-chloroanilino)-2′-[2-(4-oxocyclohexyl)propyl]-2′,3′-dihydrospiro[cyclohexane-1,1′-indene]-4-carboxylic acid] | 363 | – | 30000
8 | C[C@@H](COc1ccnc2c1CCC2O)C[C@H]1Cc2ccccc2[C@]12CC[C@@](Nc1cccc(Cl)c1)(C(=O)O)CC2 (single isomer, unassigned) [Example 609] | 2.61 | 629 | –
9 | CC(C)(COc1ccnc2sccc12)CC1Cc2ccccc2C12CCC(Nc1cccc(Cl)c1)(C(=O)O)CC2 (single isomer, unassigned) [Example 622, (1r,4r)-4-(3-chloroanilino)-2′-{2,2-dimethyl-3-[(thieno[2,3-b]pyridin-4-yl)oxy]propyl}-2′,3′-dihydrospiro[cyclohexane-1,1′-indene]-4-carboxylic acid] | 44.6 | – | 17100
10 | CC1CCc2nccc(OC[C@H](C)CC3=Cc4ccccc4[C@]34CC[C@@](Nc3cccc(Cl)c3)(C(=O)O)CC4)c21 (single isomer, unassigned) [Example 629] | 9.55 | 880 | –
11 | Cc1cn(C[C@H](C)C[C@H]2Cc3ccccc3[C@]23CC[C@@](Nc2cccc(Cl)c2)(C(=O)O)CC3)c2c(c1=O)C(C)CCC2 (single isomer, unassigned) [Example 639] | 37.2 | – | 12600
12 | Cc1cn(C[C@H](C)C[C@H]2Cc3ccccc3[C@]23CC[C@@](Nc2cccc(Cl)c2)(C(=O)O)CC3)c2c(c1=O)C(C)CCC2 (single isomer, unassigned) [Example 640] | 980 | 18100 | –
13 | CC1CCN(C)c2nccc(OC[C@H](C)C[C@H]3Cc4ccccc4[C@]34CC[C@@](Nc3cccc(Cl)c3)(C(=O)O)CC4)c21 (single isomer, unassigned) [Example 643] | 26.8 | – | 1230

Now from value to compound, other results behind:

Row | Ki [2] [nM] | Compound | IC50 [1] [nM] | IC50 ([1]; Homo sapiens, NCI-H929, 48 h) [nM]
14 | 1260 | C[C@@H]1CCCc2nccc(OCC(CC3Cc4ccccc4[C@]34CC[C@@](Nc3cccc(Cl)c3)(C(=O)O)CC4)C(F)F)c21 (single isomer, unassigned) [Example 518] | 12000 | –
15 | 0.909 | C[C@@H]1CCCc2nccc(OCC(CC3Cc4ccccc4[C@]34CC[C@@](Nc3cccc(Cl)c3)(C(=O)O)CC4)C(F)F)c21 (single isomer, unassigned) [Example 519] | 202 | –
16 | 57.1 | O=C(O)[C@]1(Nc2cccc(Cl)c2)CC[C@@]2(CC1)c1ccccc1CC2CC(COc1ccnc2ccsc12)Cc1ccccc1 (single isomer, unassigned) [Example 561, (1r,4r)-2′-{2-benzyl-3-[(thieno[3,2-b]pyridin-7-yl)oxy]propyl}-4-(3-chloroanilino)-2′,3′-dihydrospiro[cyclohexane-1,1′-indene]-4-carboxylic acid] | 12300 | –
17 | 43.5 | O=C(O)[C@]1(Nc2cccc(Cl)c2)CC[C@@]2(CC1)c1ccccc1CC2CC(COc1ccnc2ccsc12)Cc1ccccc1 (single isomer, unassigned) [Example 563, (1r,4r)-2′-{2-benzyl-3-[(thieno[3,2-b]pyridin-7-yl)oxy]propyl}-4-(3-chloroanilino)-2′,3′-dihydrospiro[cyclohexane-1,1′-indene]-4-carboxylic acid] | 3950 | –
18 | 107 | CC(CC1Cc2ccccc2[C@]12CC[C@@](Nc1cccc(Cl)c1)(C(=O)O)CC2)C1CCC(=O)CC1 (single isomer, unassigned) [Example 571, (1r,4r)-4-(3-chloroanilino)-2′-[2-(4-oxocyclohexyl)propyl]-2′,3′-dihydrospiro[cyclohexane-1,1′-indene]-4-carboxylic acid] | 30000 | –
19 | 84.2 | CC(CC1Cc2ccccc2[C@]12CC[C@@](Nc1cccc(Cl)c1)(C(=O)O)CC2)C1CCC(=O)CC1 (single isomer, unassigned) [Example 572, (1r,4r)-4-(3-chloroanilino)-2′-[2-(4-oxocyclohexyl)propyl]-2′,3′-dihydrospiro[cyclohexane-1,1′-indene]-4-carboxylic acid] | 30000 | –
20 | 806 | CC(CC1Cc2ccccc2[C@]12CC[C@@](Nc1cccc(Cl)c1)(C(=O)O)CC2)C1CCC(=O)CC1 (single isomer, unassigned) [Example 573, (1r,4r)-4-(3-chloroanilino)-2′-[2-(4-oxocyclohexyl)propyl]-2′,3′-dihydrospiro[cyclohexane-1,1′-indene]-4-carboxylic acid] | 30000 | –
21 | 1.62 | C[C@@H](COc1ccnc2c1CCC2O)C[C@H]1Cc2ccccc2[C@]12CC[C@@](Nc1cccc(Cl)c1)(C(=O)O)CC2 (single isomer, unassigned) [Example 608] | – | 792
22 | 12.7 | C[C@@H](COc1ccnc2c1[C@H]1CCC[C@H]1C2)C[C@H]1Cc2ccccc2[C@]12CC[C@@](Nc1cccc(Cl)c1)(C(=O)O)CC2 (single isomer, unassigned) [Example 620, (1r,2′S,4S)-4-(3-chloroanilino)-2′-[(2R)-3-{[(4bR*,7aR*)-4b,5,6,7,7a,8-hexahydropentaleno[2,1-b]pyridin-4-yl]oxy}-2-methylpropyl]-2′,3′-dihydrospiro[cyclohexane-1,1′-indene]-4-carboxylic acid] | 889 | –
23 | 37.6 | C[C@@H](COc1ccnc2c1[C@H]1CCC[C@H]1C2)C[C@H]1Cc2ccccc2[C@]12CC[C@@](Nc1cccc(Cl)c1)(C(=O)O)CC2 (single isomer, unassigned) [Example 621, (1r,2′S,4S)-4-(3-chloroanilino)-2′-[(2R)-3-{[(4bR*,7aR*)-4b,5,6,7,7a,8-hexahydropentaleno[2,1-b]pyridin-4-yl]oxy}-2-methylpropyl]-2′,3′-dihydrospiro[cyclohexane-1,1′-indene]-4-carboxylic acid] | 2520 | –
24 | 2320 | CC(C)(COc1ccnc2sccc12)CC1Cc2ccccc2C12CCC(Nc1cccc(Cl)c1)(C(=O)O)CC2 (single isomer, unassigned) [Example 623, (1r,4r)-4-(3-chloroanilino)-2′-{2,2-dimethyl-3-[(thieno[2,3-b]pyridin-4-yl)oxy]propyl}-2′,3′-dihydrospiro[cyclohexane-1,1′-indene]-4-carboxylic acid] | 30000 | –
25 | 1.17 | CC1CCc2nccc(OC[C@H](C)CC3=Cc4ccccc4[C@]34CC[C@@](Nc3cccc(Cl)c3)(C(=O)O)CC4)c21 (single isomer, unassigned) [Example 630] | 340 | –
26 | 34.2 | C[C@@H](COc1ccnc2c1[C@@H](C)CC[C@H]2C)C[C@H]1Cc2ccccc2[C@]12CC[C@@](Nc1cccc(Cl)c1)(C(=O)O)CC2 (single isomer, unassigned) [Example 658, (1r,2′S,4S)-4-(3-chloroanilino)-2′-[(2R)-3-{[(5R*,8S*)-5,8-dimethyl-5,6,7,8-tetrahydroquinolin-4-yl]oxy}-2-methylpropyl]-2′,3′-dihydrospiro[cyclohexane-1,1′-indene]-4-carboxylic acid] | – | 879

— patent US20240150293A1, “SPIROCYCLOHEXANE DERIVATIVES, PHARMACEUTICAL COMPOSITIONS CONTAINING THEM AND THEIR USES AS ANTI-APOPTOTIC INHIBITORS” (LES LABORATOIRES SERVIER, priority 2021, published 2024)
